Experimental data taken from patent US7521461B2, “Benzoic acid derivatives as modulators of PPAR alpha and gamma” (AstraZeneca AB, priority 2002, dated 2009).

Experiments:
[1] = target: T1, human PPAR alpha (Homo sapiens, UniProt Q07869); test: GAL4-PPAR ligand binding domain luciferase reporter transactivation assay in transiently transfected U2-OS cells; assay type: cell-based; conditions: concentration giving 50% of the maximal activation obtained by the reference compound (ETYA), about 24 hours exposure
T1 construct: expressed in transfected cells; host or cells: U2-OS (human osteogenic sarcoma), transient transfection by electroporation with a pSG5-based expression vector
T1 sequence (Q07869 239-466 limits assumed): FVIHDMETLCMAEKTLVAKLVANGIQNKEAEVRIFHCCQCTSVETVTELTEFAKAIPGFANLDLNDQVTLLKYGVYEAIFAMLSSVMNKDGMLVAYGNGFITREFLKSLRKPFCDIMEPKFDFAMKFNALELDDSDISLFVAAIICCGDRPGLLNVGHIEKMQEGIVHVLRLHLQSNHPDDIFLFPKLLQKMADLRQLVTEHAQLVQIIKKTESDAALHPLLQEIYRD
Protocol: (§1) Compounds were dissolved in DMSO to obtain 16 mM stock solutions. Before assays, stock solutions were further diluted in DMSO and culture media
(§2) U2-OS, (Osteogenic sarcoma, Human) was purchased from ATCC, USA. Cells were expanded and refrozen in batches from passage number six. Cells were cultured in Dulbecco's modified Eagle medium (DMEM) with 25 mM glucose, 2 mM glutamine or 4 mM L-alanyl-L-glutamine, 10% fetal calf serum, at 5% CO2. Phosphate buffered saline (PBS) without addition of calcium or magnesium was used. All cell culture reagents were from Gibco (USA) and 96-well cell culture plates were purchased from Wallach.
(§3) Standard recombinant DNA techniques were carried out as described by Ausubel (7). The Luciferase reporter vector, pGL5UAS (clone consists of five copies of the GAL4 DNA binding sequence, 5′-[…]-3′, cloned into the SacI/XhoI sites of pGL3-Promoter (Promega). The SacI/XhoI fragment carrying the UAS sites was constructed using annealed overlapping oligonucleotides.
(§4) Expression vectors used are based upon pSG5 (Stratagene). All vectors contain an EcoRI/NheI fragment encoding the DNA binding domain of GALA (encoding amino acid positions 1-145 of database accession number P04386) followed by an in-frame fusion to a fragment encoding the nuclear localisation sequence from T antigen of Polyoma Virus. […]

[2] = target: T2, mouse PPAR gamma (Mus musculus, UniProt P37238); test: as above; assay type: cell-based; conditions: concentration giving 50% of the maximal activation obtained by the reference compound (pioglitazone), about 24 hours exposure
T2 construct: expressed in transfected cells; host or cells: U2-OS (human osteogenic sarcoma), transient transfection by electroporation with a pSG5-based expression vector
T2 sequence (P37238 238-503 limits assumed): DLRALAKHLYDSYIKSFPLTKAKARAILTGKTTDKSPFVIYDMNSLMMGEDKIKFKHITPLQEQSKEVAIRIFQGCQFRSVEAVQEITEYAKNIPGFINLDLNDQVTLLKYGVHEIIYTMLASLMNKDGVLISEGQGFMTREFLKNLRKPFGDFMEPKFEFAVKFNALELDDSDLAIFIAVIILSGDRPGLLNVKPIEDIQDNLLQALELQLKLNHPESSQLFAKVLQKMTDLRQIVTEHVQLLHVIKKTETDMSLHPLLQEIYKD
Protocol: as §1, §2, §3, §4

EC50 [1]: 2.96 µM
EC50 [2]: 3.05 µM
Compound: O=C(Cc1ccc(OCc2ccccc2C(=O)O)cc1)NCc1ccc(C(F)(F)F)cc1 [Example 2, 2-{[4-(2-Oxo-2-{[4-(trifluoromethyl)benzyl]amino}ethyl)phenoxy]methyl}benzoic acid]
